Experimental data: US12568972B2, “Pyridazinol compounds and derivatives, preparation methods, herbicidal compositions and applications thereof” (Qingdao Kingagroot Chemical Compound Co., Ltd., priority 2018, dated 2026)

What was measured:
Experiment in all cases: Post-emergence test, weed control effect
Format in all cases: in vivo
Details in all cases: after 3 weeks
Chenopodiaceae = test system: Chenopodiaceae
In short: (§1)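 Scores use a 0 (no effect) to 10 (dead) scale of fresh-weight inhibition, assessed 3 weeks after spraying. Treatment was at the 2-3 leaf stage, 2-3 weeks post-sowing, using acetone/Tween-80/water solutions with 80% vegetable oil methyl ester synergist at 1500 g/ha.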

Rorippa indica = test system: Rorippa indica
In short: as §1

Veronica polita = test system: Veronica polita
In short: as §1

Amaranthus retroflexus = test system: Amaranthus retroflexus
In short: as §1

Oc1cc(C(F)(F)F)nnc1-c1c(F)c(F)c(F)c(F)c1F [Compound 55]
10: weed control effect (activity level), Chenopodiaceae (Chenopodiaceae; dose 1000 g/ha) | weed control effect (activity level), Rorippa indica (Rorippa indica; dose 1000 g/ha) | weed control effect (activity level), Veronica polita (Veronica polita; dose 1000 g/ha) | weed control effect (activity level), Amaranthus retroflexus (Amaranthus retroflexus; dose 1000 g/ha)

Cc1ccc(-c2nnc(C(F)(F)F)cc2O)cc1F [Compound 56]
10: weed control effect (activity level), Chenopodiaceae (Chenopodiaceae; dose 1000 g/ha) | weed control effect (activity level), Rorippa indica (Rorippa indica; dose 1000 g/ha) | weed control effect (activity level), Veronica polita (Veronica polita; dose 1000 g/ha) | weed control effect (activity level), Amaranthus retroflexus (Amaranthus retroflexus; dose 1000 g/ha)

Cc1ccc(F)c(-c2nnc(C(F)(F)F)cc2O)c1 [Compound 57]
10: weed control effect (activity level), Chenopodiaceae (Chenopodiaceae; dose 1000 g/ha) | weed control effect (activity level), Rorippa indica (Rorippa indica; dose 1000 g/ha) | weed control effect (activity level), Veronica polita (Veronica polita; dose 1000 g/ha) | weed control effect (activity level), Amaranthus retroflexus (Amaranthus retroflexus; dose 1000 g/ha)

Cc1cc(F)ccc1-c1nnc(C(F)(F)F)cc1O [Compound 58]
10: weed control effect (activity level), Chenopodiaceae (Chenopodiaceae; dose 1000 g/ha) | weed control effect (activity level), Rorippa indica (Rorippa indica; dose 1000 g/ha) | weed control effect (activity level), Veronica polita (Veronica polita; dose 1000 g/ha) | weed control effect (activity level), Amaranthus retroflexus (Amaranthus retroflexus; dose 1000 g/ha)

Cc1ccc(-c2nnc(C(F)(F)F)cc2O)c(F)c1 [Compound 59]
10: weed control effect (activity level), Chenopodiaceae (Chenopodiaceae; dose 1000 g/ha) | weed control effect (activity level), Rorippa indica (Rorippa indica; dose 1000 g/ha) | weed control effect (activity level), Veronica polita (Veronica polita; dose 1000 g/ha) | weed control effect (activity level), Amaranthus retroflexus (Amaranthus retroflexus; dose 1000 g/ha)

COc1ccc(F)cc1-c1nnc(C(F)(F)F)cc1O [Compound 60]
10: weed control effect (activity level), Chenopodiaceae (Chenopodiaceae; dose 1000 g/ha) | weed control effect (activity level), Rorippa indica (Rorippa indica; dose 1000 g/ha) | weed control effect (activity level), Veronica polita (Veronica polita; dose 1000 g/ha) | weed control effect (activity level), Amaranthus retroflexus (Amaranthus retroflexus; dose 1000 g/ha)

O=[N+]([O-])c1ccc(F)c(-c2nnc(C(F)(F)F)cc2O)c1 [Compound 61]
10: weed control effect (activity level), Chenopodiaceae (Chenopodiaceae; dose 1000 g/ha) | weed control effect (activity level), Rorippa indica (Rorippa indica; dose 1000 g/ha) | weed control effect (activity level), Veronica polita (Veronica polita; dose 1000 g/ha) | weed control effect (activity level), Amaranthus retroflexus (Amaranthus retroflexus; dose 1000 g/ha)

COc1c(C)ccc(F)c1-c1nnc(C(F)(F)F)cc1O [Compound 62]
10: weed control effect (activity level), Chenopodiaceae (Chenopodiaceae; dose 1000 g/ha) | weed control effect (activity level), Rorippa indica (Rorippa indica; dose 1000 g/ha) | weed control effect (activity level), Veronica polita (Veronica polita; dose 1000 g/ha) | weed control effect (activity level), Amaranthus retroflexus (Amaranthus retroflexus; dose 1000 g/ha)

O=Cc1c(F)cccc1-c1nnc(C(F)(F)F)cc1O [Compound 63]
10: weed control effect (activity level), Chenopodiaceae (Chenopodiaceae; dose 1000 g/ha) | weed control effect (activity level), Rorippa indica (Rorippa indica; dose 1000 g/ha) | weed control effect (activity level), Veronica polita (Veronica polita; dose 1000 g/ha) | weed control effect (activity level), Amaranthus retroflexus (Amaranthus retroflexus; dose 1000 g/ha)

O=Cc1ccc(-c2nnc(C(F)(F)F)cc2O)c(F)c1 [Compound 64]
10: weed control effect (activity level), Chenopodiaceae (Chenopodiaceae; dose 1000 g/ha) | weed control effect (activity level), Rorippa indica (Rorippa indica; dose 1000 g/ha) | weed control effect (activity level), Veronica polita (Veronica polita; dose 1000 g/ha) | weed control effect (activity level), Amaranthus retroflexus (Amaranthus retroflexus; dose 1000 g/ha)

O=Cc1ccc(-c2nnc(C(F)(F)F)cc2O)cc1F [Compound 65]
10: weed control effect (activity level), Chenopodiaceae (Chenopodiaceae; dose 1000 g/ha) | weed control effect (activity level), Rorippa indica (Rorippa indica; dose 1000 g/ha) | weed control effect (activity level), Veronica polita (Veronica polita; dose 1000 g/ha) | weed control effect (activity level), Amaranthus retroflexus (Amaranthus retroflexus; dose 1000 g/ha)

O=[N+]([O-])c1cc(-c2nnc(C(F)(F)F)cc2O)ccc1F [Compound 66]
10: weed control effect (activity level), Chenopodiaceae (Chenopodiaceae; dose 1000 g/ha) | weed control effect (activity level), Rorippa indica (Rorippa indica; dose 1000 g/ha) | weed control effect (activity level), Veronica polita (Veronica polita; dose 1000 g/ha) | weed control effect (activity level), Amaranthus retroflexus (Amaranthus retroflexus; dose 1000 g/ha)

O=Cc1ccc(F)cc1-c1nnc(C(F)(F)F)cc1O [Compound 67]
10: weed control effect (activity level), Chenopodiaceae (Chenopodiaceae; dose 1000 g/ha) | weed control effect (activity level), Rorippa indica (Rorippa indica; dose 1000 g/ha) | weed control effect (activity level), Veronica polita (Veronica polita; dose 1000 g/ha) | weed control effect (activity level), Amaranthus retroflexus (Amaranthus retroflexus; dose 1000 g/ha)

COc1cccc(-c2nnc(C(F)(F)F)cc2O)c1F [Compound 68]
10: weed control effect (activity level), Chenopodiaceae (Chenopodiaceae; dose 1000 g/ha) | weed control effect (activity level), Rorippa indica (Rorippa indica; dose 1000 g/ha) | weed control effect (activity level), Veronica polita (Veronica polita; dose 1000 g/ha) | weed control effect (activity level), Amaranthus retroflexus (Amaranthus retroflexus; dose 1000 g/ha)

O=[N+]([O-])c1ccc(Cl)c(-c2nnc(C(F)(F)F)cc2O)c1 [Compound 69]
10: weed control effect (activity level), Chenopodiaceae (Chenopodiaceae; dose 1000 g/ha) | weed control effect (activity level), Rorippa indica (Rorippa indica; dose 1000 g/ha) | weed control effect (activity level), Veronica polita (Veronica polita; dose 1000 g/ha) | weed control effect (activity level), Amaranthus retroflexus (Amaranthus retroflexus; dose 1000 g/ha)

COc1ccc(Cl)c(-c2nnc(C(F)(F)F)cc2O)c1 [Compound 70]
10: weed control effect (activity level), Chenopodiaceae (Chenopodiaceae; dose 1000 g/ha) | weed control effect (activity level), Rorippa indica (Rorippa indica; dose 1000 g/ha) | weed control effect (activity level), Veronica polita (Veronica polita; dose 1000 g/ha) | weed control effect (activity level), Amaranthus retroflexus (Amaranthus retroflexus; dose 1000 g/ha)

Cc1cc(Cl)ccc1-c1nnc(C(F)(F)F)cc1O [Compound 71]
10: weed control effect (activity level), Chenopodiaceae (Chenopodiaceae; dose 1000 g/ha) | weed control effect (activity level), Rorippa indica (Rorippa indica; dose 1000 g/ha) | weed control effect (activity level), Veronica polita (Veronica polita; dose 1000 g/ha) | weed control effect (activity level), Amaranthus retroflexus (Amaranthus retroflexus; dose 1000 g/ha)

Cc1cc(-c2nnc(C(F)(F)F)cc2O)ccc1Cl [Compound 72]
10: weed control effect (activity level), Chenopodiaceae (Chenopodiaceae; dose 1000 g/ha) | weed control effect (activity level), Rorippa indica (Rorippa indica; dose 1000 g/ha) | weed control effect (activity level), Veronica polita (Veronica polita; dose 1000 g/ha) | weed control effect (activity level), Amaranthus retroflexus (Amaranthus retroflexus; dose 1000 g/ha)

Cc1ccc(-c2nnc(C(F)(F)F)cc2O)c(C)c1 [Compound 77]
10: weed control effect (activity level), Chenopodiaceae (Chenopodiaceae; dose 2000 g/ha) | weed control effect (activity level), Rorippa indica (Rorippa indica; dose 2000 g/ha) | weed control effect (activity level), Veronica polita (Veronica polita; dose 2000 g/ha) | weed control effect (activity level), Amaranthus retroflexus (Amaranthus retroflexus; dose 2000 g/ha)

CCOc1ccc(F)c(-c2nnc(C(F)(F)F)cc2O)c1F [Compound 81]
10: weed control effect (activity level), Chenopodiaceae (Chenopodiaceae; dose 1000 g/ha) | weed control effect (activity level), Rorippa indica (Rorippa indica; dose 1000 g/ha) | weed control effect (activity level), Veronica polita (Veronica polita; dose 1000 g/ha) | weed control effect (activity level), Amaranthus retroflexus (Amaranthus retroflexus; dose 1000 g/ha)

Cc1ccc(Cl)c(-c2nnc(C(F)(F)F)cc2O)c1F [Compound 82]
10: weed control effect (activity level), Chenopodiaceae (Chenopodiaceae; dose 1000 g/ha) | weed control effect (activity level), Rorippa indica (Rorippa indica; dose 1000 g/ha) | weed control effect (activity level), Veronica polita (Veronica polita; dose 1000 g/ha) | weed control effect (activity level), Amaranthus retroflexus (Amaranthus retroflexus; dose 1000 g/ha)

CCCOc1ccc(-c2nnc(C(F)(F)F)cc2O)cc1 [Compound 83]
10: weed control effect (activity level), Chenopodiaceae (Chenopodiaceae; dose 1000 g/ha) | weed control effect (activity level), Rorippa indica (Rorippa indica; dose 1000 g/ha) | weed control effect (activity level), Veronica polita (Veronica polita; dose 1000 g/ha) | weed control effect (activity level), Amaranthus retroflexus (Amaranthus retroflexus; dose 1000 g/ha)

Oc1cc(C(F)(F)F)nnc1-c1cccc(C(F)(F)F)c1 [Compound 92]
10: weed control effect (activity level), Chenopodiaceae (Chenopodiaceae; dose 1000 g/ha) | weed control effect (activity level), Rorippa indica (Rorippa indica; dose 1000 g/ha) | weed control effect (activity level), Veronica polita (Veronica polita; dose 1000 g/ha) | weed control effect (activity level), Amaranthus retroflexus (Amaranthus retroflexus; dose 1000 g/ha)
